This note sets out measurements from patent publication US20080139554A1, “SPIRO-PIPERIDINE DERIVATIVES” (priority 2006, published 2008).

SMILES strings stand for the structures.

The target of the assay is T1, human V1a receptor (Homo sapiens, UniProt P37288).
T1 construct: expressed in transfected cells; host or cells: HEK293 cells, transiently transfected; cell membranes
T1 sequence (P37288 whole entry): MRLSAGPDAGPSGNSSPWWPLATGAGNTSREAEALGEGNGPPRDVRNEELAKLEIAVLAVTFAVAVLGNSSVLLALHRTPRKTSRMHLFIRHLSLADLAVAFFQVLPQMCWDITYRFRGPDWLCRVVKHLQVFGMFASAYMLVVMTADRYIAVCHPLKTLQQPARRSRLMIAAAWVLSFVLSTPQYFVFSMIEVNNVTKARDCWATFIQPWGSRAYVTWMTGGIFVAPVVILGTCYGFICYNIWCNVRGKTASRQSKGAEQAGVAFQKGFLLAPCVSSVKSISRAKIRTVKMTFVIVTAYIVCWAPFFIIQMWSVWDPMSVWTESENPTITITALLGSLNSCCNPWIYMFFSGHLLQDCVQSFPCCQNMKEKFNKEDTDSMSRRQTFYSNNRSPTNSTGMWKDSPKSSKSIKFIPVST
The assay can be described thus: human V1a receptor binding (3H-Vasopressin SPA). The conditions noted are these: displacement of 3H-Vasopressin; membranes of HEK293 cells transiently transfected with human V1a receptor; Ki by Cheng-Prussoff equation. As for the experimental part:
The human V1a receptor was cloned by RT-PCR from total human liver RNA. The coding sequence was subcloned in an expression vector after sequencing to confirm the identity of the amplified sequence. […] Cell membranes were prepared from HEK293 cells transiently transfected with the expression vector and grown in 20 liter fermenters with the following protocol.
50 g of cells were resuspended in 30 ml freshly prepared ice cold Lysis buffer (50 mM HEPES, 1 mM EDTA, 10 mM MgCl2 adjusted to pH=7.4+complete cocktail of protease inhibitor (Roche Diagnostics)). The mixture was homogenized with Polytron for 1 min and sonicated on ice for 2×2 minutes at 80% intensity (Vibracell sonicator). The preparation was centrifuged 20 min at 500 g at 4° C., the pellet was discarded and the supernatant centrifuged 1 hour at 43'000 g at 4° C. (19'000 rpm). The pellet was resuspended in 12.5 ml Lysis buffer+12.5 ml Sucrose 20% and homogenized using a Polytron for 1-2 min. The protein concentration was determined by the Bradford method and aliquots were stored at −80° C. until use. For binding studies 60 mg Yttrium silicate SPA beads (Amersham) were mixed with an aliquot of membrane in binding buffer (50 mM Tris, 120 mM NaCl, 5 mM KCl, 2 mM CaCl2, 10 mM MgCl2) for 15 minutes with mixing. 50 ul of bead/membrane mixture was then added to each well of a 96 well plate, followed by 50 ul of 4 nM 3H-Vasopressin (American Radiolabeled Chemicals). For total binding measurement, 100 ul of binding buffer were added to the respective wells; for non-specific binding, 100 ul of 8.4 mM cold vasopressin were added; and for compound testing, 100 ul of a serial dilution of each compound in 2% DMSO was added. The plate was incubated 1 h at room temperature, centrifuged 1 min at 1000 g and counted on a Packard Top-Count. Non-specific binding counts were subtracted from each well and data was normalized to the maximum specific binding set at 100%. To calculate an IC 50 the curve was fitted using a non-linear regression model (XLfit) and the Ki was calculated using the Cheng-Prussoff equation.
Background: In a radioligand displacement assay an active substance lowers the binding of a labelled ligand.
Consider `N#CCc1cc(Cl)cc2cc(C(=O)N3CCC4(CC3)OCc3ccccc34)[nH]c12` [Example 10, [5-chloro-2-(1′H,3H-spiro[2-benzofuran-1,4′-piperidin]-1′-ylcarbonyl)-1H-indol-7-yl]acetonitrile], for which affinity was put at a Ki of 2.09 nM.

Regarding `CN(C)CCNC(=O)Cc1cc(Cl)cc2cc(C(=O)N3CCC4(CC3)OCc3ccccc34)[nH]c12` [Example 13, 2-[5-chloro-2-(1′H,3H-spiro[2-benzofuran-1,4′-piperidin]-1′-ylcarbonyl)-1H-indol-7-yl]-N-[2-(dimethylamino)ethyl]acetamide], the Ki (usually the dissociation constant of the complex between target and ligand, obtained from inhibition or displacement) is 7.76 nM.

For `O=C1OC2(CCN(C(=O)c3cc4cc(Cl)ccc4[nH]3)CC2)c2ccccc21` [Example 2, 1′-[(5-chloro-1H-indol-2-yl)carbonyl]-3H-spiro[2-benzofuran-1,4′-piperidin]-3-one], the Ki is 32.4 nM.

Consider `N#CCn1c(C(=O)N2CCC3(CC2)C(=O)Nc2ccc(Br)cc23)cc2cc(Cl)ccc21` [Example 46, {2-[(5-Bromo-2-oxo-1,2-dihydro-1′H-spiro[indole-3,4′-piperidin]-1′-yl)carbonyl]-5-chloro-1H-indol-1-yl}acetonitrile], for which the Ki was 21.4 nM.

In the case of `COc1c(C(=O)N2CCC3(CC2)OCc2ccccc23)[nH]c2cccc(Br)c12` [Example 8, 1′-[(4-bromo-3-methoxy-1H-indol-2-yl)carbonyl]-3H-spiro[2-benzofuran-1,4′-piperidine]], the affinity, expressed as Ki, was 30.2 nM.

For `O=C(c1cc2cc(Cl)cc(CN3CCOCC3)c2[nH]1)N1CCC2(CC1)OCc1ccccc12` [Example 11, 1′-{[5-chloro-7-(morpholin-4-ylmethyl)-1H-indol-2-yl]carbonyl}-3H-spiro[2-benzofuran-1,4′-piperidine]], the affinity corresponds to a Ki of 3.8 nM.

The compound `CN1CCN(C(=O)Cc2cc(Cl)cc3cc(C(=O)N4CCC5(CC4)OCc4ccccc45)[nH]c23)CC1` [Example 14, 1′-({5-chloro-7-[2-(4-methylpiperazin-1-yl)-2-oxoethyl]-1H-indol-2-yl}carbonyl)-3H-spiro[2-benzofuran-1,4′-piperidine]] showed a Ki of 2.75 nM.

`N#CCc1cc(Cl)cc2cc(C(=O)N3CCC4(CC3)OC(=O)c3ccccc34)[nH]c12` [Example 5, {5-chloro-2-[(3-oxo-1′H,3H-spiro[2-benzofuran-1,4′-piperidin]-1′-yl)carbonyl]-1H-indol-7-yl}acetonitrile] had a Ki of 6.61 nM.

With `O=C(c1cc2cc(F)ccc2[nH]1)N1CCC2(CC1)OCc1ccccc12` [Example 6, 1′-[(5-fluoro-1H-indol-2-yl)carbonyl]-3H-spiro[2-benzofuran-1,4′-piperidine]], the inhibition constant Ki is 17.8 nM.

Turning to `CN(C)C(=O)Cn1c(C(=O)N2CCC3(CC2)OC(=O)c2ccccc23)cc2cc(Cl)ccc21` [Example 4, 2-{5-chloro-2-[(3-oxo-1′H,3H-spiro[2-benzofuran-1,4′-piperidin]-1′-yl)carbonyl]-1H-indol-1-yl}-N,N-dimethylacetamide], the affinity corresponds to a Ki of 17.4 nM.

`Cc1c(C(=O)N2CCC3(CC2)COc2ccccc23)[nH]c2c(C)cccc12` [Example 26, 1′-[(3,7-dimethyl-1H-indol-2-yl)carbonyl]spiro[1-benzofuran-3,4′-piperidine]] gave an inhibition constant Ki of 7.24 nM.

In the case of `Cc1ccc2c(C)c(C(=O)N3CCC4(CC3)COc3ccccc34)[nH]c2c1C` [Example 24, 1′-[(3,6,7-trimethyl-1H-indol-2-yl)carbonyl]spiro[1-benzofuran-3,4′-piperidine]], the Ki was 9.77 nM.

In the case of `CN(C)Cc1cc(Cl)cc2cc(C(=O)N3CCC4(CC3)OCc3ccccc34)[nH]c12` [Example 15, 1-[5-chloro-2-(1′H,3H-spiro[2-benzofuran-1,4′-piperidin]-1′-ylcarbonyl)-1H-indol-7-yl]-N,N-dimethylmethanamine], the inhibition constant Ki was 3.63 nM.

`O=C1OC2(CCN(C(=O)c3cc4cc(Cl)ccc4[nH]3)CC2)c2ccc(F)cc21` [Example 1, 1′-[(5-chloro-1H-indol-2-yl)carbonyl]-5-fluoro-3H-spiro[2-benzofuran-1,4′-piperidin]-3-one]: affinity was put at a Ki of 41.7 nM.

For `O=C(c1cc2cc(Cl)ccc2[nH]1)N1CCC2(CC1)OCc1ccccc12` [Example 9, 1′-[(5-chloro-1H-indol-2-yl)carbonyl]-3H-spiro[2-benzofuran-1,4′-piperidine]], the inhibition constant Ki was 5.5 nM.

In the case of `CN1CCN(Cc2cc(Cl)cc3cc(C(=O)N4CCC5(CC4)OCc4ccccc45)[nH]c23)CC1` [Example 12, 1′-({5-chloro-7-[(4-methylpiperazin-1-yl)methyl]-1H-indol-2-yl}carbonyl)-3H-spiro[2-benzofuran-1,4′-piperidine]], affinity was put at a Ki of 21.4 nM.
